Measurements as given in patent US4386103A, “Dichloroamino acid derivatives useful as potent germicidal and fungicidal agents” (Merck & Co., Inc., priority 1981, dated 1983).

Experiments:
Assay type in all cases: cell-based
[1] = tested on: Microsporum canis; test: Contact fungicidal screen, Microsporum canis; conditions: 0.1M NaOAc pH 4.6
Experimental: The organisms used in the Contact Fungicidal Screen are a dermatophyte, trychophyton mentagrophytes, frequently associated with athlete's foot; a yeast, Candida albican, causative agent of thrush and vaginitis; a phycomycete, Rhizopus oryzae, commonly known as black bread mold; an ascomycete, Aspergillus fumagatis, found in chicken droppings and causing lung infections; and another dermatophyte, Microsporum canis, which causes ringworm. These organisms are maintained as stock cultures at 4° C. on agar […] of the following composition: dextrose 2%, Neopeptone (Difco) 1%, agar 2%. Fluid medium of the same nutrient composition (without agar) was used to test the viability of the organisms after exposure to the fungicide. This medium is also known as Sabouraud's medium. Sabouraud's agar plate cultures of Aspergillus fumigatus, Microsporum canis, and a different culture of Trychophyton mentagrophytes are prepared by planting an inoculum at the center of an agar plate and incubating at 25°-30° C. for seven to ten days. The mycelial mats are removed from the surface of the agar and prepared in the same manner as the Rhizopus culture. The compounds are weighed into heat sterilized 100 ml volumetric flasks and immediately before screening dissolved in 0.1 M NaOAc pH 4.6 buffer (test solutions). The Aspergillus, Candida, Microsporum and Rhizopus species are screened in a slightly different manner. Basically, the procedure for the Contact Germicidal Efficiency Screen is utilized. After the test solutions are made up, 5 ml aliquots are pipetted into heat sterilized 25 ml glass stoppered erlenmeyer flasks. The screen is initiated when 0.5 ml of the 5×10^6 cell (spore) per ml suspension is added to the flask containing 5 ml of the test solution. […] The subculture tubes are incubated at 25°-30° C. for ten days with daily observation for mycelial growth. The earliest subculture time at which no growth is present is considered the endpoint and is recorded as the sterilization time. To insure the viability of the culture, a 0.5 ml aliquot of the 5×10^6 cells (spores) per ml suspension is transferred to 5 ml of the pH 4.6 buffer. A loopful of the inoculated buffer is then subcultured to 7 ml of fluid Sabouraud's medium and incubated at 25°-30° C. for ten days. To insure that the dilution of the test solution into the subculture medium does stop the action, a loopful of the test solution and a loopful of the inoculated buffer are transferred into the same subculture tube. This tube is also incubated at 25°-30° C. for ten days.

[2] = tested on: Pseudamonas aeruginosa; test: Contact germicidal screen, Pseudamonas aeruginosa ATCC No. 14502
Experimental: (§1) The organisms used in the contact germicidal screen are all maintained as stock cultures on nutrient agar […] 4° C. They are transferred and biochemically diagnosed monthly. The five organisms used are: The media used are: […] Overnight cultures of the test organisms are grown in tryptose phosphate broth. After 15-16 hours, the cultures are centrifuged at […] for 15 minutes, and the supernatant replaced with fresh warm (37° C.) media. After two hours of incubation, the absorbance of the culture at 650 nm is determined and diluted with nutrient broth to 1×10^7 colony forming units per ml (using a previous determined standard curve: colony forming units/ml vs. absorbance at 650). The diluted cultures are maintained at 4°-8° C. throughout the screen. The compounds are weighed into sterile 100 ml volumetric flasks, and immediately before screening dissolved in one of the following buffers: 0.1 M NaOAc pH 4.6 or 0.1 M NaH2 PO4 pH 7.0. If solubility poses a problem, 10-30% methanol is used to effect solution. Two denaturing agents are also tested: […] Horse Serum restored with 100 ml distilled water and 10% Trition×100. When used, 2.5 ml of the denaturing agent is mixed with 2.5 ml of double strength test solution thirty minutes before the bacterial suspension is added. The screen is initiated when 0.2 ml of the bacterial suspension is added to 5.0 ml of the test solution contained in a sterile 25 ml glass stoppered flask. At intervals of 0.5, 2.5, 5.0, 10.0 and 15.0 minutes, a loopful of the inoculated test solution is subcultured into 5 ml of sterile nutrient broth and mixed with a vortex, the high dilution serving to stop the action of the compound. All of the subculture tubes are incubated at 37° C. and checked for signs of growth by turbidity at 1, 3, 5 and 7 days. The earliest subculture time at which no growth is present is considered the endpoint and is recorded as the sterilization time. An aliquot of 0.2 ml of the diluted culture is transferred to 5 ml of buffer to simulate 0.2 ml in 5 ml of test solution. (a) Purity: A loopful of the inoculated buffer is streaked onto nutrient agar to check colony morphology and lack of contaminants. (b) Viability: A loopful of the inoculated buffer is subcultured to 5 ml of nutrient broth as in the screen and incubated at 37° C. for 24 hours. (c) Dilution of the Test Solution: A loopful of the test solution is transferred to a 5 ml tube of nutrient broth, and a loopful of the inoculated buffer is transferred to the same tube of broth. […] (d) Purity of Organisms in the Test Solution: After the 15 minute subculture, a loopful of the inoculated test solution is streaked onto nutrient agar to insure that contamination has not occurred during the screen. (e) lack of Bactericidal Activity of Buffers and Other Solvents: Before a buffer or other solvent is used as a diluent, it is screened against the five organisms to insure that the buffer or solvent has no antibacterial activity itself.

[3] = tested on: Staphylococcus aureus; test: Contact germicidal screen, Staphylococcus aureus ATCC No. 6538
Experimental: as §1

[4] = 10.0+ PPM, 0.1M NaOAc pH 4.6, screened simultaneously with four other compounds
[5] = 300 PPM with 50% Horse Serum, 0.1M NaOAc pH 4.6
[6] = 300 PPM with 50% Triton X100, 0.1M NaOAc pH 4.6
[7] = 308.0 PPM, Triton X100 (10% solution):pH 4.6 buffer 1:1
[8] = 338.7 PPM, horse serum:pH 4.6 buffer 1:1
[9] = 1000 PPM with 50% Horse Serum, 0.1M NaOAc pH 4.6
[10] = 1024.0 PPM, horse serum:pH 4.6 buffer 1:1
[11] = 1070.3 PPM, 0.1M NaH2PO4 pH 7.0
[12] = 291.4 PPM, Triton X100 (10% solution):pH 4.6 buffer 1:1
[13] = 291.4 PPM, horse serum:pH 4.6 buffer 1:1
[14] = 1024.4 PPM, 0.1M NaH2PO4 pH 7.0
[15] = 1042.0 PPM, horse serum:pH 4.6 buffer 1:1

## CC(C)(COC(=O)CCC(=O)O)N(Cl)Cl [(IV), 2-Dichloroamino-2-methylpropylhemisuccinate]
[1]; 10 PPM
  Sterilization Time: 15 min
[1]; 100 PPM
  Sterilization Time: 15.0 min
[1]; 1000 PPM
  Sterilization Time: 2.5 min
[2]; 8.6 PPM, 0.1M NaOAc pH 4.6
  Sterilization Time: 10.0 min
[2]; 9.8 PPM, 0.1M NaH2PO4 pH 7.0
  Sterilization Time: 15 min
[2]; [4]
  Sterilization Time: 5.0 min
[2]; 10 PPM, 0.1M NaOAc pH 4.6
  Sterilization Time (summary): 5.0 min
[2]; 100 PPM, 0.1M NaOAc pH 4.6
  Sterilization Time (summary): 2.5 min
[2]; 106.2 PPM, 0.1M NaOAc pH 4.6
  Sterilization Time: 2.5 min
[2]; 149.7 PPM, 0.1M NaH2PO4 pH 7.0
  Sterilization Time: 15 min
[2]; [5]
  Sterilization Time (summary): 15 min
[2]; [6]
  Sterilization Time (summary): 2.5 min
[2]; [7]
  Sterilization Time: 2.5 min
[2]; [8]
  Sterilization Time: 15 min
[2]; [9]
  Sterilization Time (summary): 10.0 min
[2]; 1000 PPM, 0.1M NaOAc pH 4.6
  Sterilization Time (summary): 0.5 min
[2]; 1008.0 PPM, 0.1M NaOAc pH 4.6
  Sterilization Time: 0.5 min
[2]; [10]
  Sterilization Time: 10.0 min
[2]; [11]
  Sterilization Time: 15 min
[3]; 8.6 PPM, 0.1M NaOAc pH 4.6
  Sterilization Time: 15.0 min
[3]; 9.8 PPM, 0.1M NaH2PO4 pH 7.0
  Sterilization Time: 15 min
[3]; [4]
  Sterilization Time: 15 min
[3]; 10 PPM, 0.1M NaOAc pH 4.6
  Sterilization Time (summary): 15 min
[3]; 100 PPM, 0.1M NaOAc pH 4.6
  Sterilization Time (summary): 2.5 min
[3]; 106.2 PPM, 0.1M NaOAc pH 4.6
  Sterilization Time: 2.5 min
[3]; 149.7 PPM, 0.1M NaH2PO4 pH 7.0
  Sterilization Time: 10.0 min
[3]; [5]
  Sterilization Time (summary): 15.0 min
[3]; [6]
  Sterilization Time (summary): 2.5 min
[3]; [7]
  Sterilization Time: 2.5 min
[3]; [8]
  Sterilization Time: 15.0 min
[3]; [9]
  Sterilization Time (summary): 2.5 min
[3]; 1000 PPM, 0.1M NaOAc pH 4.6
  Sterilization Time (summary): 0.5 min
[3]; 1008.0 PPM, 0.1M NaOAc pH 4.6
  Sterilization Time: 0.5 min
[3]; [10]
  Sterilization Time: 2.5 min
[3]; [11]
  Sterilization Time: 10.0 min

## CC(C)(COC(=O)CCCC(=O)O)N(Cl)Cl [(V), 2-dichloramino-2-methylpropyl-hemiglutarate]
[1]; 10 PPM
  Sterilization Time: 15 min
[1]; 100 PPM
  Sterilization Time: 5.0 min
[1]; 1000 PPM
  Sterilization Time: 2.5 min
[2]; [4]
  Sterilization Time: 5.0 min
[2]; 10.0 PPM, 0.1M NaH2PO4 pH 7.0
  Sterilization Time: 15 min
[2]; 10 PPM, 0.1M NaOAc pH 4.6
  Sterilization Time (summary): 5.0 min
[2]; 10.0 PPM, 0.1M NaOAc pH 4.6
  Sterilization Time: 10.0 min
[2]; 99.1 PPM, 0.1M NaOAc pH 4.6
  Sterilization Time: 2.5 min
[2]; 100 PPM, 0.1M NaOAc pH 4.6
  Sterilization Time (summary): 2.5 min
[2]; 106.7 PPM, 0.1M NaH2PO4 pH 7.0
  Sterilization Time: 15 min
[2]; [12]
  Sterilization Time: 2.5 min
[2]; [13]
  Sterilization Time: 15 min
[2]; [5]
  Sterilization Time (summary): 15 min
[2]; [6]
  Sterilization Time (summary): 2.5 min
[2]; 911.8 PPM, 0.1M NaOAc pH 4.6
  Sterilization Time: 0.5 min
[2]; [9]
  Sterilization Time (summary): 10.0 min
[2]; 1000 PPM, 0.1M NaOAc pH 4.6
  Sterilization Time (summary): 0.5 min
[2]; [14]
  Sterilization Time: 15 min
[2]; [15]
  Sterilization Time: 10.0 min
[3]; [4]
  Sterilization Time: 10.0 min
[3]; 10.0 PPM, 0.1M NaH2PO4 pH 7.0
  Sterilization Time: 15 min
[3]; 10 PPM, 0.1M NaOAc pH 4.6
  Sterilization Time (summary): 10.0 min
[3]; 10.0 PPM, 0.1M NaOAc pH 4.6
  Sterilization Time: 10.0 min
[3]; 99.1 PPM, 0.1M NaOAc pH 4.6
  Sterilization Time: 2.5 min
[3]; 100 PPM, 0.1M NaOAc pH 4.6
  Sterilization Time (summary): 2.5 min
[3]; 106.7 PPM, 0.1M NaH2PO4 pH 7.0
  Sterilization Time: 15 min
[3]; [12]
  Sterilization Time: 2.5 min
[3]; [13]
  Sterilization Time: 15 min
[3]; [5]
  Sterilization Time (summary): 15 min
[3]; [6]
  Sterilization Time (summary): 2.5 min
[3]; 911.8 PPM, 0.1M NaOAc pH 4.6
  Sterilization Time: 0.5 min
[3]; [9]
  Sterilization Time (summary): 2.5 min
[3]; 1000 PPM, 0.1M NaOAc pH 4.6
  Sterilization Time (summary): 0.5 min
[3]; [14]
  Sterilization Time: 5.0 min
[3]; [15]
  Sterilization Time: 2.5 min
